The values that follow come from US6897036B2, “Fluorescent detection of peroxidase enzymes” (Lumigen, Inc., priority 2002, dated 2005).

The experiment addresses T1, HRP (Armoracia rusticana, UniProt P00433).
T1 sequence (P00433 31-338): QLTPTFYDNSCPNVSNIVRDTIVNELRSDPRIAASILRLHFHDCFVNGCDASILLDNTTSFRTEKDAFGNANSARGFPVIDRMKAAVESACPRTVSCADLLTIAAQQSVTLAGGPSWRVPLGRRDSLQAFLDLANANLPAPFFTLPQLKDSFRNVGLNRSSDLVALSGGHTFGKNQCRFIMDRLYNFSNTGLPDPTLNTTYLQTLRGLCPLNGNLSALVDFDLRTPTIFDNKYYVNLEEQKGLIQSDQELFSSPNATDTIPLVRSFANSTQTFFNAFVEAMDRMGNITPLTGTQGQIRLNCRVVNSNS
The experiment is described as follows: Detection of HRP with acridan substrate 13 by chemiluminescence and fluorescence (FIG. 5). Type of experiment: biochemical, horseradish. As to conditions: 0.05 mM substrate. On the procedure:
FIG. 5 is a graph showing the linearity of detection of HRP using reagent compositions containing substrate 13 with fluorescence and chemiluminescence detection. A solution containing 0.05 mM compound 13, 0.1 mM 4-phenylphenol, 0.5 mM urea peroxide, 1 mM EDTA, 0.025% TWEEN 20 in 10 mM tris, pH 8.0 was reacted with the indicated quantities of HRP. Chemiluminescence intensity was measured 10 min after addition of enzyme, fluorescence at 515 nm was measured 30 min after addition of enzyme.
Chemiluminescent HRP detection limit using a reagent composition containing 0.05 mM 2′,3′,6′-trifluorophenyl 3-methoxy-10-methylacridan-9-carboxylate (compound 13), 0.1 mM 4-phenylphenol, 0.5 mM urea peroxide, 1 mM EDTA, and 0.025% TWEEN 20 in 0.01 M tris buffer, pH 8.0 was obtained on a Labsystems Luminoskan microtiter plate reader. White Microlite 1 FB 12-well strips (Dynatech Laboratories) containing 100 μL of the reagent in each well were reacted with 10 μL of HRP dilutions. Light intensity was measured at 10 min.
Sensitive detection of HRP was achieved using the reaction solutions of Example 22 producing fluorescence by the second mode. After making the chemiluminescence measurement, the strips were transferred to the fluorometer and fluorescence intensity determined at 530 nm with excitation at 380 nm.

Take `COc1ccc2c(c1)N(C)c1ccccc1C2C(=O)Oc1c(F)ccc(F)c1F` (centres unmarked) [Compound 13, 2′,3′,6′-trifluorophenyl 3-methoxy-10-methylacridan-9-carboxylate]: the “Detectable amount of HRP (fluorescence, second mode)” value (tris pH 8.0, fluorescence at 530 nm, excitation 380 nm) is “less than 1 amol”. Also, under “tris pH 8.0, same reaction solutions”, the “Sensitivity of fluorescent detection compared with chemiluminescent detection (in words)” value is “equivalent to chemiluminescent detection”.
